The values that follow come from patent US8546373B2 (Biogenic Innovations, LLC, priority 2009, dated 2013).

The subject of the data set is Streptococcus pneumonia. To be noted: 7 h, 5 %.

`C[S+](C)[O-]` [DMSO, dimethyl sulfoxide]: the reduction in viability entry was “approximately 25%”.
